# Test results published in patent US20180298024A1, “CORTISTATIN ANALOGS AND USES THEREOF” (President and Fellows of Harvard College, priority 2015, published 2018).
# Values joined by “and” are separate entries in the source; they are usually repeats but may differ in a detail not shown here. Identical values can stand only once.
# Columns and labels:
# [1] = molecular target: hERG potassium channel (Homo sapiens, UniProt Q12809); test: in vitro; conditions: human
# Protocol: (§1) The in vitro effects of compounds A, B, C, D, E, and F on the hERG (human ether-à-go-go-related gene) potassium channel current (a surrogate for IKr, the rapidly activating, delayed rectifier cardiac potassium current) expressed in mammalian cells were evaluated at room temperature using the QPatch HT (Sophion Bioscience A/S, Denmark), an automatic parallel patch clamp system. The test articles were evaluated at 1 μM, 3 μM, […] and 30 μM. Each test article concentration was tested in at least three cells. The duration of exposure to each test article concentration was a minimum of 3 minutes.
# [2] = molecular target: hERG (human ether-à-go-go-related gene) potassium channel (Homo sapiens, UniProt Q12809); test: in vitro
# Protocol: as §1
# [3] = TurboSol solubility evaluation in physiological saline; format: physicochemical; conditions: HB-PS+0.3% DMSO
# [4] = molecular target: T1, Adenosine Transporter (Cavia porcellus, UniProt H0V4R7); test: Panlab assay, Adenosine Transporter; format: binding; conditions: reference standard
# T1 sequence (H0V4R7 1-461): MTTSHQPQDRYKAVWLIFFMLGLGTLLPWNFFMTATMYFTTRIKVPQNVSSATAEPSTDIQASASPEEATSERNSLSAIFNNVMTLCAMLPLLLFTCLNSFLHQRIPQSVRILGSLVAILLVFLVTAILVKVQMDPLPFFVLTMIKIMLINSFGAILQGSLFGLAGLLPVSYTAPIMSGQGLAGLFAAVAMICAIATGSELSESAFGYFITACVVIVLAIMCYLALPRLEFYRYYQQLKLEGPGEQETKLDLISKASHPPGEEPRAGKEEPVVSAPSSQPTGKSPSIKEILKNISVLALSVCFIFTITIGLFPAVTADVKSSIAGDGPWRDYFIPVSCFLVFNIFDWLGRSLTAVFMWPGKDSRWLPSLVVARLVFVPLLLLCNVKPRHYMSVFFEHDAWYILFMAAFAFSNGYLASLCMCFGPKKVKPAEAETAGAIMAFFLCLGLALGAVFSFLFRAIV
# Protocol: (§2) Compounds A, B, C, and D were tested in Panlab assays to evaluate potential off-target activity using standard assay kits. Methods employed in these studies have been adapted from the scientific literature to maximize reliability and reproducibility. Reference standards were run as an integral part of each assay to ensure the validity of the results obtained.
# (§3) IC50 values were determined by a non-linear, least squares regression analysis using MathIQ™ (ID Business Solutions Ltd., UK). Where inhibition constants (Ki) are presented, the Ki values were calculated using the equation of Cheng and Prusoff (Cheng, Y., Prusoff, W. H., Biochem. Pharmacol. 22:3099-3108, 1973) using the observed IC50 of the tested compound, the concentration of radioligand employed in the assay, and the historical values for the KD of the ligand (obtained experimentally at Eurofins Panlabs, Inc.). Where presented, the Hill coefficient (nH), defining the slope of the competitive binding curve, was calculated using MathIQ™.
# [5] = molecular target: T2, Opiate μ(OP3, MOP) (Homo sapiens, UniProt P35372); test: Panlab assay, Opiate μ(OP3, MOP); format: binding
# T2 construct: Eurofins Panlabs
# Protocol: Compounds A, B, C, and D were tested in Panlab assays to evaluate potential off-target activity using standard assay kits. Methods employed in these studies have been adapted from the scientific literature to maximize reliability and reproducibility.
# IC50 values were determined by a non-linear, least squares regression analysis using MathIQ™ (ID Business Solutions Ltd., UK). […] Where presented, the Hill coefficient (nH), defining the slope of the competitive binding curve, was calculated using MathIQ™.
# [6] = test system: MOLM-14; test: Half-maximal growth inhibition (GI50), MOLM-14; format: cell-based; conditions: Homo sapiens, 240 h, AML, M5, MLL-AF9, read-out: GI50 (nM), day 10
# Protocol: (§4) Compounds A, B, C, D, and F were tested against various cell lines to probe their broad utility against cancer. Cortistatin A (CA) was also tested against the cell lines in a head to head fashion.
# [7] = Pharmacokinetic profile in mice (plasma, LC-MS/MS); conditions: male, CD-1, mouse, plasma, po, 1 mg/kg
# Protocol: (§7) Formulation correction for salt content was not required for this study. Materials were vortexed and sonicated at room temperature following addition of vehicle. The solutions were maintained at ambient temperature stirring in the dark for at least 30 minutes prior to dose administration. The formulations were then vortexed and sonicated briefly to help ensure solubility.
# (§8) Mice were selected from the Testing Facility's rodent colony. The animals were enrolled in the study based on acceptable health as determined by Testing Facility personnel on the day of test article administration. Animals were held in environmental acclimation for at least 48 hours (±6 hours) prior to dosing. Animals were maintained at temperatures between 16-26° C. (62-78° F.) with the humidity range between 30-70%. Animals in all groups were fasted overnight and food was returned 4 hours following dosing. Water was provided ad libitum throughout the study.
# (§9) Whole blood samples for plasma were either collected from each animal by either direct vein puncture of the submandibular vein (survival blood collection) or by cardiac puncture following euthanasia with CO2 (terminal blood collection). […] Following collection, whole blood was placed into a tube containing K2EDTA and immediately placed on wet ice until processed for plasma. Whole blood samples were centrifuged at 2200×g for 10 minutes in a refrigerated centrifuge (5±3° C.) to isolate plasma. The samples were transferred to individual polypropylene containers and immediately placed on dry ice before storage at −70±10° C. until analysis. Plasma collected from undosed spare animals was pooled and analyzed as well.
# (§10) Once collected the mouse plasma studies were quantitated using LCMS/MS spectroscopy to determine the concentration of compound. […] Eight calibration standards containing the analyte and internal standard imipramine were prepared and analyzed at the beginning and at the end of the sequence. A calibration curve was generated and sample concentrations calculated using the Quantitation software MassHunter.
# [8] = test system: SKNO-1; test: Half-maximal growth inhibition (GI50), SKNO-1; format: cell-based; conditions: Homo sapiens, 240 h, AML, M2, RUNX1-RUNX1T1, read-out: GI50 (nM), day 10
# Protocol: as §4
# [9] = molecular target: T3, hERG channel (IKr) (Homo sapiens, UniProt Q12809); test: hERG (IKr) current, PatchXpress 7000A planar voltage clamp; format: cell-based; conditions: human, CHO or HEK293 cells expressing the hERG channel; PatchXpress functional voltage clamp
# T3 construct: expressed in transfected cells; host or cells: CHO or HEK293 cells
# Protocol: (§5) The objective of this study was to evaluate the in vitro effects of Compound F on three cardiac ion channel currents: IKr, the rapidly activating, delayed rectifier potassium current through hERG channel encoded by human ether-à-go-go-related gene; IKs, the slowly activating, delayed rectifier cardiac potassium channel current encoded by hKCNQ1/hKCNE1; and INa, the human cardiac Na+ channel current encoded by hNav1.5 in CHO or HEK293 cells (Table 7). This functional assay was conducted using higher throughput planar voltage-clamp technology PatchXpress 7000A.
# (§6) Signal amplitudes were quantified at steady state during control (vehicle) and in the presence of increasing concentrations of the test compound. Concentration-dependent changes of signal in response to compound were expressed as percent block relative to control (pre-drug/trigger) and are reported as the mean±SEM (standard error) of the indicated number (N) of tested cells/wells. IC50 values were determined where applicable by fitting the averaged concentration-response data (mean±SEM) with a Hill equation.
# [10] = test system: off-targets (Panlabs); test: Panlab off-target assay panel; format: binding; conditions: 10 μM
# Protocol: as §2, §3
# [11] = test system: MV4; 11; test: Half-maximal growth inhibition (GI50), MV4; 11; format: cell-based; conditions: Homo sapiens, 240 h, AML, M5, MLL-AF4, read-out: GI50 (nM), day 10
# Protocol: as §4
# [12] = molecular target: hERG (Homo sapiens, UniProt Q12809); test: hERG (IKr) current, PatchXpress 7000A planar voltage clamp; format: cell-based; set-up: expressed in transfected cells; host or cells: CHO or HEK293 cells
# Protocol: as §5, §6
# [13] = molecular target: T4, hKCNQ1/hKCNE1 (IKs) (Homo sapiens, UniProt P51787); test: IKs current, PatchXpress 7000A planar voltage clamp; format: cell-based
# T4 construct: expressed in transfected cells; host or cells: CHO or HEK293 cells
# Protocol: as §5, §6
# [14] = Tolerability study of Compound F (body weight); format: in vivo, mice
# Protocol: Twenty seven mice were used for the tolerability study of Compound F. Mice were randomly assigned to various treatment groups with n=3 mice/group. In the low dose group of 0.3 mg/kg Compound F administered IP, mice were re-challenged after 8 days of drug holiday with a higher dose of 20 mg/kg Compound F, IP. All mice were treated for 7 days unless as indicated below.
# Mice were monitored clinically for signs of morbidity and for body weights daily. Mice showing signs of morbidity were euthanized as per study guidelines.
# [15] = test system: Human AML cell line MV4;11; test: MV4;11 disseminated leukemia model (bioluminescence); format: in vivo, NSG mice; conditions: for Efficacy Rank Day 15: each compound at its own dose/schedule, data from 3 separate studies
# Protocol: The in vivo anti-leukemic activity of Compounds A, B, C, D, and F was tested at the indicated doses and treatment schedules. The doses were chosen based on the compounds tolerability profile (i.e. CA was dosed at 0.16 mg/kg because higher doses caused weight loss or other tolerability issues outlined in Example 6). Human AML cell line MV4;11 expressing mCherry and luciferase were injected into NSG mice. Upon measurement of leukemia cell engraftment, treatment was initiated. Body weight and bioluminescence were measured. It has previously been shown (Shair, Nature 2015) that bioluminescence corresponds to leukemia burden. […] Moreover there was no appreciable advantage between IV or PO dosing observed.
# [16] = molecular target: T5, hNav1.5 (INa) (Homo sapiens, UniProt Q14524); test: INa current, PatchXpress 7000A planar voltage clamp; format: cell-based
# T5 construct: expressed in transfected cells; host or cells: CHO or HEK293 cells
# Protocol: as §5, §6
# [17] = molecular target: T6, Tachykinin NK1 (Homo sapiens, UniProt P25103); test: Panlab assay, Tachykinin NK1; format: binding
# T6 construct: Eurofins Panlabs
# Protocol: as §2, §3
# [18] = test system: OCI-AML2; test: Half-maximal growth inhibition (GI50), OCI-AML2; format: cell-based; conditions: Homo sapiens, 240 h, AML, M4, DNMT3A R635W, read-out: GI50 (nM), day 10
# Protocol: as §4
# [19] = test system: MKPL1; test: Half-maximal growth inhibition (GI50), MKPL1; format: cell-based; conditions: Homo sapiens, 240 h, AML, M7, read-out: GI50 (nM), day 10
# Protocol: as §4
# [20] = test system: K562; test: Half-maximal growth inhibition (GI50), K562; format: cell-based; conditions: Homo sapiens, 240 h, CML, BCR-Abl, read-out: GI50 (nM), day 10
# Protocol: as §4
# [21] = test system: HEL; test: Half-maximal growth inhibition (GI50), HEL; format: cell-based; conditions: Homo sapiens, 240 h, AML, erythroleukemia, JAK2V617F, read-out: GI50 (nM), day 10
# Protocol: as §4
# [22] = in vivo; conditions: male, CD-1, mouse, ip, 0.16 mg/kg
# Protocol: as §7, §8, §9, §10
# [23] = Individual Data Points (% Inhibition), hERG
# T5 sequence (Q14524 whole entry): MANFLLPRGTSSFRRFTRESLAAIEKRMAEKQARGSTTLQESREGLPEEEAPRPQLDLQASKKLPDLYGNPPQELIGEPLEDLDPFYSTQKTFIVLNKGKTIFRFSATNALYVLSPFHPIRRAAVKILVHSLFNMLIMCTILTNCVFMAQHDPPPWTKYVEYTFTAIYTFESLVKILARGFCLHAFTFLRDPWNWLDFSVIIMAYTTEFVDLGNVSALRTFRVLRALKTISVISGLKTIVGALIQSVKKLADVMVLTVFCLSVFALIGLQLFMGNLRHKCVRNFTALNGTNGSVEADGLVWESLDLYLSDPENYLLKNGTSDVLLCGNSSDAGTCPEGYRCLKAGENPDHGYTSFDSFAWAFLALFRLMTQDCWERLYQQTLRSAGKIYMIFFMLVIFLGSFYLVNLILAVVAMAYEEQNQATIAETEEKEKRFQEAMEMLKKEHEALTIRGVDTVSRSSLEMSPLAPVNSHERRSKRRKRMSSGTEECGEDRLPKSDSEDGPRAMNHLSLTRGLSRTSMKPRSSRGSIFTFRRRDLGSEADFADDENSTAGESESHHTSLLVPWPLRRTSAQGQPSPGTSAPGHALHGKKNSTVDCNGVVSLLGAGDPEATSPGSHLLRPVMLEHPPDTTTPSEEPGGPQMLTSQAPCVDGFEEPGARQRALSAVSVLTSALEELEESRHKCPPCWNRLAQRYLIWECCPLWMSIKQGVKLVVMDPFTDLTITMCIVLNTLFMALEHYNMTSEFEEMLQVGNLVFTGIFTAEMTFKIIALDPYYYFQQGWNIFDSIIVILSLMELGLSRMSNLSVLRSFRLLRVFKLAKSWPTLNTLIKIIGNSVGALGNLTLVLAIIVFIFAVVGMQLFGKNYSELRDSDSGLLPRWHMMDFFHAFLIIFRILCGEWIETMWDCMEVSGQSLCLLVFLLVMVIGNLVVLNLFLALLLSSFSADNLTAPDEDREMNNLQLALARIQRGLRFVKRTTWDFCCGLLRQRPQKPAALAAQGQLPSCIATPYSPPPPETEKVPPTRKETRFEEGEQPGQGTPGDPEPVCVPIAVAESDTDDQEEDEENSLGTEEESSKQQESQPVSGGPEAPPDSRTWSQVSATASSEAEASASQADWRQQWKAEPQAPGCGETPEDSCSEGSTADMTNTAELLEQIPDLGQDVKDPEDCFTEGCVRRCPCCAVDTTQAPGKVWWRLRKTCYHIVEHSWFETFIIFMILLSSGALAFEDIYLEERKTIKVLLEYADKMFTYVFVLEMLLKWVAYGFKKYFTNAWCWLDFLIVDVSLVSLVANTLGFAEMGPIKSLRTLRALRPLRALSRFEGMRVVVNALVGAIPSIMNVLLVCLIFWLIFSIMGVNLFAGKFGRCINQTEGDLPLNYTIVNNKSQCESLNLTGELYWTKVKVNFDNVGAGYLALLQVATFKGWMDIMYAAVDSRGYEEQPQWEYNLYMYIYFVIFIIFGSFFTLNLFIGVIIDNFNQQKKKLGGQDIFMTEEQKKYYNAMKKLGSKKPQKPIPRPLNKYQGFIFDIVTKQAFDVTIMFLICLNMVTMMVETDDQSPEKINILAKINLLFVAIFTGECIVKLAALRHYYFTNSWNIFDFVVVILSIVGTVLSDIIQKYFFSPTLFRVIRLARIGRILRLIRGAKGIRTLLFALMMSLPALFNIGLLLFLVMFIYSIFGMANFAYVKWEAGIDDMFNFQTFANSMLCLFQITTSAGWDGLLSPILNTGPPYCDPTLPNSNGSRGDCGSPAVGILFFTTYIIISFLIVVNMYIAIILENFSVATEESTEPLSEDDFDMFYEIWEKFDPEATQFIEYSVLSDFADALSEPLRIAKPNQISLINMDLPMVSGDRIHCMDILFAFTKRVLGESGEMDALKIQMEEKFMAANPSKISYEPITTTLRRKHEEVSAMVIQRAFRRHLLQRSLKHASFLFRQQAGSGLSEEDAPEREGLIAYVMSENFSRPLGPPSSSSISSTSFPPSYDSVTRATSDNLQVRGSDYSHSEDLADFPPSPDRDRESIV
# Sequence of hERG potassium channel (Q12809 whole entry): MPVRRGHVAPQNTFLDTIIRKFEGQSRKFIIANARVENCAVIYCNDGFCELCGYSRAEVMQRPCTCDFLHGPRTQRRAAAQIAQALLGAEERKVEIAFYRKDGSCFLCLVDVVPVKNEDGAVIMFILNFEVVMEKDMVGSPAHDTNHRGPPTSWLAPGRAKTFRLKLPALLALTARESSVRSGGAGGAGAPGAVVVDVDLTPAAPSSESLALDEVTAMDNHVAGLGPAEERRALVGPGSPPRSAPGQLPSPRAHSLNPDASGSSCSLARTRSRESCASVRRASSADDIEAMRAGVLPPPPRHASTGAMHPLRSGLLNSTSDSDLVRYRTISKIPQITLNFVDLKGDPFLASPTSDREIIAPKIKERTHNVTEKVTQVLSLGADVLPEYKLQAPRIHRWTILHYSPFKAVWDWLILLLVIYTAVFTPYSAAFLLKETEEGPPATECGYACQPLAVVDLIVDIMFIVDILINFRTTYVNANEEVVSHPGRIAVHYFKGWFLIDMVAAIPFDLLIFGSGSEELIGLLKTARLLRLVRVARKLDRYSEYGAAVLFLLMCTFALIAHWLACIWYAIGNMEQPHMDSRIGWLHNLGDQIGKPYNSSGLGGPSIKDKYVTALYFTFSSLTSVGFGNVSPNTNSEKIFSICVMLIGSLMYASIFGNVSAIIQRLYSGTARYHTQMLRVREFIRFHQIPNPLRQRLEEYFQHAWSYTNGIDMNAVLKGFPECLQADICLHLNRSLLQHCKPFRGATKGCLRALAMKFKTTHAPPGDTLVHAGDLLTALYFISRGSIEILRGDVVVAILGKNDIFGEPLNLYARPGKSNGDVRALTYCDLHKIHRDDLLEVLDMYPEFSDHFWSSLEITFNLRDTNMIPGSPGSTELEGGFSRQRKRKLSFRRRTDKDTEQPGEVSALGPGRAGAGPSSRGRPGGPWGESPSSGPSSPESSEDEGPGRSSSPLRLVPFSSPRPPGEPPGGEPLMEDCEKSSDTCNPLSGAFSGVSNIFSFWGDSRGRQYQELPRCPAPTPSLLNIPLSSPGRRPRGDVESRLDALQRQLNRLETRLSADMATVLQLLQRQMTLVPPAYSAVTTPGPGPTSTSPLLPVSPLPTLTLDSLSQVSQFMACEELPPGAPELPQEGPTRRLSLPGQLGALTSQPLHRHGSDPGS
# Sequence of hERG (Q12809 whole entry): as above
# T6 sequence (P25103 whole entry): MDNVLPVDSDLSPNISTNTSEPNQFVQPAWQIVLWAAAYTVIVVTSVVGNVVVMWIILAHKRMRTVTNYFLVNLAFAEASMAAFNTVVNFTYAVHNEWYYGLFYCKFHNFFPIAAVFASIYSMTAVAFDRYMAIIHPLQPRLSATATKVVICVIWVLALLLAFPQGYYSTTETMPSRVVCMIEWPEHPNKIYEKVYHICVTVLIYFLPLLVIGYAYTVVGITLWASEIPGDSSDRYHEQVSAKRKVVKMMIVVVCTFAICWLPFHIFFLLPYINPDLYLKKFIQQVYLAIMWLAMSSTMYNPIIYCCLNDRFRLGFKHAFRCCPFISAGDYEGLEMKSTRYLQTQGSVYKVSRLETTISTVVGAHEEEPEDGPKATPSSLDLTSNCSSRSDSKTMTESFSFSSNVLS
structure (smiles),measurement,setting,value
C[C@]12CC=C3C=C4CC[C@@H](N5CCCC5)C[C@]45CCC3(O5)[C@@H]1CC[C@@H]2c1ccc2ccncc2c1 [Compound E],inhibition at 1 µM,[1]; [23],65.6%
same,inhibition at 3 µM,[1]; [23],83.4%
same,inhibition at 10 µM,[1]; [23],93.8%
same,inhibition at 30 µM,[1]; [23],97.7%
same,inhibition at 1 µM,[1]; Mean % hERG Inhibition,67.2%
same,inhibition at 3 µM,[1]; Mean % hERG Inhibition,79.2%
same,inhibition at 10 µM,[1]; Mean % hERG Inhibition,93%
same,inhibition at 30 µM,[1]; Mean % hERG Inhibition,98.8%
same,activity in the hERG assay,[2],sub-micromolar activity
same,IC50,"[2]; hERG IC50, QPatch HT, room temperature",562 nM
same,Average LSU (×1000),[3]; 1 μM,3.7 LSU (×1000)
same,Average LSU (×1000),[3]; 3 μM,4.7 LSU (×1000)
same,Average LSU (×1000),[3]; 10 μM,6.4 LSU (×1000)
same,Average LSU (×1000),[3]; 30 μM,8.7 LSU (×1000)
same,solubility in the TurboSol assay,[3],slightly insoluble at 30 μM
"O=[N+]([O-])c1ccc(CSc2ncnc3c2ncn3C2OC(CO)C(O)C2O)cc1 (stereo not drawn) [nitrobenzylthioinosine, Nitrobenzylthioinosine, reference compound]",IC50,[4],0.35 nM
same,Ki,[4]; Cheng and Prusoff,0.12 nM
"C[C@@H](NC(=O)[C@@H](N)Cc1ccc(O)cc1)C(=O)NCC(=O)N(C)[C@@H](Cc1ccccc1)C(=O)NCCO [DAMGO, reference compound]","nH (Hill coefficient), Opiate μ(OP3, MOP)",[5],0.75
C[C@]12CC=C3C=C4CC[C@@H](N5CCC5)C[C@]45CCC3(O5)[C@@H]1CC[C@@H]2c1ccc2ccncc2c1 [Compound F],GI50,[6],3 nM
same,AUC(0-inf),[7],524 ng·h/mL
same,GI50,[8],< 1 nM
same,IC20,[9],110 nM
same,number of targets with ≥75% inhibition,[10]; Safety Panel = 28 binding assays (Eurofins Panlabs),12
same,number of targets with greater than 50% inhibition,[10]; over 100 Panlab assays,over 20
same,number of targets with inhibition of greater than or equal to 75%,[10]; over 100 Panlab assays,12
same,GI50,[11],1 nM
same,hERG % Block Mean ± SEM (n),[12]; 0.12 μM,21 ± 2 (3) %
same,hERG % Block Mean ± SEM (n),[12]; 0.37 μM,51 ± 1 (3) %
same,hERG % Block Mean ± SEM (n),[12]; 1.1 μM,77 ± 0 (3) %
same,hERG % Block Mean ± SEM (n),[12]; 3.3 μM,94 ± 0 (4) %
same,hERG % Block Mean ± SEM (n),[12]; 10 μM,97 ± 0 (4) %
same,hERG % Block Mean ± SEM (n),[12]; 30 μM,102 ± 1 (4) %
same,IC50,[12]; PatchXpress functional voltage clamp,370 nM
same,IC50,[13],17000 nM
same,IKS % Block Mean ± SEM (n),[13]; 10 μM,34 ± 7 (5) %
same,IKS % Block Mean ± SEM (n),[13]; 30 μM,68±15% and 68 ± 15 (4) %
same,body weight loss,"[14]; IP 20 mg/kg, 2 of 3 mice",> 15%
same,average body weight loss,[14]; oral 1 mg/kg,~10%
same,body weight loss,"[14]; oral 3 mg/kg, 3 of 3 mice, requiring drug holiday",> 15%
same,body weight loss,"[14]; oral 10 mg/kg, not tolerated",> 20%
same,Fold increase in leukemia burden 15 days after 1st dose,"[15]; 1 mpk PO QDx15, NSG mice",12.3 fold
same,Efficacy Rank Day 15,[15],6
same,INa at 3 Hz % Block Mean ± SEM (n),"[16]; 3.3 μM, pulsing rate 3 Hz",30 ± 5 (4) %
same,INa at 3 Hz % Block Mean ± SEM (n),"[16]; 10 μM, pulsing rate 3 Hz",60 ± 3 (4) %
same,inhibition at 30 µM,"[16]; 30 μM, pulsing rate 0.2 Hz",86 ± 2%
same,INa at 3 Hz % Block Mean ± SEM (n),"[16]; 30 μM, pulsing rate 3 Hz",98±1% and 98 ± 1 (4) %
same,IC50,[16]; pulsing rate 0.2 Hz,14000 nM
same,IC50,[16]; pulsing rate 3 Hz,6500 nM
"Ic1ccccc1CN[C@@H]1C2CCN(CC2)[C@@H]1C(c1ccccc1)c1ccccc1 (racemic) [L-703,606, reference compound]","nH (Hill coefficient), Tachykinin NK1",[17],0.88
same,IC50,[17]; reference standard,3.6 nM
same,Ki,"[17]; reference standard, Cheng and Prusoff",2.6 nM
CN(C)[C@H]1C[C@@]23CC[C@@]4(O2)C(=CC[C@]2(C)[C@@H](c5ccc6ccncc6c5)CC[C@H]24)C=C3[C@@H](O)[C@@H]1O [Cortistatin A],GI50,[6],< 1 nM
same,GI50,[18],1 nM
same,GI50,[19],< 1 nM
same,GI50,[8],< 1 nM
same,GI50,[11],< 1 nM
same,GI50,[20],> 1000 nM
same,GI50,[21],> 1000 nM
same,Efficacy Rank Day 15,[15],4
same,AUC(0-inf),[22],134 ng·h/mL
